Reference: the supplement of paper PMC11579375

What was measured:
Assay in all cases: area under the viability dose-response curve (AUC) (AUC (arbitrary units, max 500 = no viability loss)); higher = less sensitive (higher viability)
Settings in all cases: exposure time: 120 h; concentration range: 0.1 nM - 10 µM, 6 doses
[1] = tested on: 8F1 (fetal-I hepatoblastoma organoid with intermediate liver markers)
Method: (§1)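 Patient-derived hepatoblastoma tumor organoids (about 50 organoids per well, 384-well plates, medium with 5% BME) were treated with the PMC pediatric cancer drug library. Each drug was tested in duplicate at 6 concentrations (0.1 nM to 10 µM, 10-fold steps).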

[2] = tested on: 135F2 (fetal-II hepatoblastoma organoid with high liver markers)
Method: as §1

[3] = tested on: 13F2 (fetal-II hepatoblastoma organoid with high liver markers)
Method: as §1

[4] = tested on: 13E (embryonal-type hepatoblastoma organoid)
Method: as §1

[5] = tested on: 27F1 (fetal-I hepatoblastoma organoid with intermediate liver markers)
Method: as §1

[6] = tested on: 22E (embryonal-type hepatoblastoma organoid)
Method: as §1

[7] = tested on: 10F2 (fetal-II hepatoblastoma organoid with high liver markers)
Method: as §1

[8] = tested on: 3E (embryonal-type hepatoblastoma organoid)
Method: as §1

[9] = tested on: 17F1 (fetal-I hepatoblastoma organoid with intermediate liver markers)
Method: as §1

[10] = tested on: 17E (embryonal-type hepatoblastoma organoid)
Method: as §1

[11] = tested on: 96F1 (fetal-I hepatoblastoma organoid with intermediate liver markers)
Method: as §1

## CN1CCN(CCOc2cc(OC3CCOCC3)c3c(Nc4c(Cl)ccc5c4OCO5)ncnc3c2)CC1 [Saracatinib]
[1]
  area under the viability dose-response curve: 475
[2]
  area under the viability dose-response curve: 478
[3]
  area under the viability dose-response curve: 415
[4]
  area under the viability dose-response curve: 464
[5]
  area under the viability dose-response curve: 381
[6]
  area under the viability dose-response curve: 477
[7]
  area under the viability dose-response curve: 422
[8]
  area under the viability dose-response curve: 492
[9]
  area under the viability dose-response curve: 493
[10]
  area under the viability dose-response curve: 455
[11]
  area under the viability dose-response curve: 466

## C[C@]12C=CC(=O)C=C1CC[C@@H]1[C@@H]2[C@@H](O)C[C@@]2(C)[C@H]1CC[C@]2(O)C(=O)CO [Prednisolone]
[1]
  area under the viability dose-response curve: 472
[2]
  area under the viability dose-response curve: 475
[3]
  area under the viability dose-response curve: > 500
[4]
  area under the viability dose-response curve: 494
[5]
  area under the viability dose-response curve: 489
[6]
  area under the viability dose-response curve: 487
[7]
  area under the viability dose-response curve: 475
[8]
  area under the viability dose-response curve: 472
[9]
  area under the viability dose-response curve: 493
[10]
  area under the viability dose-response curve: 467
[11]
  area under the viability dose-response curve: 479

## CN(C)/N=N/c1[nH]cnc1C(N)=O [Dacarbazine]
[1]
  area under the viability dose-response curve: > 500
[2]
  area under the viability dose-response curve: 496
[3]
  area under the viability dose-response curve: 487
[4]
  area under the viability dose-response curve: > 500
[5]
  area under the viability dose-response curve: 494
[6]
  area under the viability dose-response curve: > 500
[7]
  area under the viability dose-response curve: > 500
[8]
  area under the viability dose-response curve: > 500
[9]
  area under the viability dose-response curve: 486
[10]
  area under the viability dose-response curve: > 500
[11]
  area under the viability dose-response curve: 491

## Cc1c2c(nn1C)CSCc1cc(n(C)n1)CSc1cc(c3ccccc3c1)OCCCc1c(C(=O)O)n(C)c3c-2c(Cl)ccc13 [AZD5991]
[1]
  area under the viability dose-response curve: 484
[2]
  area under the viability dose-response curve: 379
[3]
  area under the viability dose-response curve: 277
[4]
  area under the viability dose-response curve: 403
[5]
  area under the viability dose-response curve: 473
[6]
  area under the viability dose-response curve: 400
[7]
  area under the viability dose-response curve: 190
[8]
  area under the viability dose-response curve: 310
[9]
  area under the viability dose-response curve: 482
[10]
  area under the viability dose-response curve: 370
[11]
  area under the viability dose-response curve: > 500

## Cc1[nH]c2ccccc2c1CCNCc1ccc(/C=C/C(=O)NO)cc1 [Panobinostat]
[1]
  area under the viability dose-response curve: 325
[2]
  area under the viability dose-response curve: 248
[3]
  area under the viability dose-response curve: 220
[4]
  area under the viability dose-response curve: 294
[5]
  area under the viability dose-response curve: 296
[6]
  area under the viability dose-response curve: 319
[7]
  area under the viability dose-response curve: 166
[8]
  area under the viability dose-response curve: 210
[9]
  area under the viability dose-response curve: 271
[10]
  area under the viability dose-response curve: 218
[11]
  area under the viability dose-response curve: 290

## CC(C)(C)c1cc(NC(=O)Nc2ccc(-c3cn4c(n3)sc3cc(OCCN5CCOCC5)ccc34)cc2)no1 [Quizartinib]
[1]
  area under the viability dose-response curve: 494
[2]
  area under the viability dose-response curve: 489
[3]
  area under the viability dose-response curve: 485
[4]
  area under the viability dose-response curve: > 500
[5]
  area under the viability dose-response curve: > 500
[6]
  area under the viability dose-response curve: 484
[7]
  area under the viability dose-response curve: 474
[8]
  area under the viability dose-response curve: > 500
[9]
  area under the viability dose-response curve: 471
[10]
  area under the viability dose-response curve: 432
[11]
  area under the viability dose-response curve: 489

## C=CCNC1=C2C[C@@H](C)C[C@H](OC)[C@H](O)[C@@H](C)/C=C(\C)[C@H](OC(N)=O)[C@@H](OC)/C=C\C=C(/C)C(=O)NC(=CC1=O)C2=O [Tanespimycin]
[1]
  area under the viability dose-response curve: 356
[2]
  area under the viability dose-response curve: 267
[3]
  area under the viability dose-response curve: 245
[4]
  area under the viability dose-response curve: 384
[5]
  area under the viability dose-response curve: 311
[6]
  area under the viability dose-response curve: 346
[7]
  area under the viability dose-response curve: 220
[8]
  area under the viability dose-response curve: 382
[9]
  area under the viability dose-response curve: 373
[10]
  area under the viability dose-response curve: 337
[11]
  area under the viability dose-response curve: 327

## CCn1cc(-c2cccc(C(F)(F)F)c2)c2sc(C(=N)NC3CCS(=O)(=O)CC3)cc2c1=O [I-BRD9]
[1]
  area under the viability dose-response curve: 459
[2]
  area under the viability dose-response curve: 471
[3]
  area under the viability dose-response curve: 435
[4]
  area under the viability dose-response curve: 470
[5]
  area under the viability dose-response curve: > 500
[6]
  area under the viability dose-response curve: 493
[7]
  area under the viability dose-response curve: > 500
[8]
  area under the viability dose-response curve: 376
[9]
  area under the viability dose-response curve: 490
[10]
  area under the viability dose-response curve: 461
[11]
  area under the viability dose-response curve: 478

## CC(C)c1cc(-c2n[nH]c(=O)n2-c2ccc3c(ccn3C)c2)c(O)cc1O [Ganetespib]
[1]
  area under the viability dose-response curve: 265
[2]
  area under the viability dose-response curve: 340
[3]
  area under the viability dose-response curve: 243
[4]
  area under the viability dose-response curve: 269
[5]
  area under the viability dose-response curve: 278
[6]
  area under the viability dose-response curve: 345
[7]
  area under the viability dose-response curve: 236
[8]
  area under the viability dose-response curve: 265
[9]
  area under the viability dose-response curve: 343
[10]
  area under the viability dose-response curve: 232
[11]
  area under the viability dose-response curve: 358

## C[C@@H](NC(=O)c1ncnc(N)c1Cl)c1ncc(C(=O)Nc2cc(C(F)(F)F)c(Cl)cn2)s1 [TAK-580]
[1]
  area under the viability dose-response curve: > 500
[2]
  area under the viability dose-response curve: 449
[3]
  area under the viability dose-response curve: 485
[4]
  area under the viability dose-response curve: > 500
[5]
  area under the viability dose-response curve: > 500
[6]
  area under the viability dose-response curve: > 500
[7]
  area under the viability dose-response curve: 433
[8]
  area under the viability dose-response curve: > 500
[9]
  area under the viability dose-response curve: > 500
[10]
  area under the viability dose-response curve: > 500
[11]
  area under the viability dose-response curve: > 500

## C[C@@H](Oc1cc(-c2cnn(C3CCNCC3)c2)cnc1N)c1c(Cl)ccc(F)c1Cl [Crizotinib]
[1]
  area under the viability dose-response curve: 477
[2]
  area under the viability dose-response curve: 422
[3]
  area under the viability dose-response curve: 398
[4]
  area under the viability dose-response curve: 415
[5]
  area under the viability dose-response curve: 441
[6]
  area under the viability dose-response curve: 420
[7]
  area under the viability dose-response curve: 369
[8]
  area under the viability dose-response curve: 379
[9]
  area under the viability dose-response curve: 431
[10]
  area under the viability dose-response curve: 405
[11]
  area under the viability dose-response curve: 462

## COc1cccc(OCCCN)c1-c1cc(Nc2cnc(C#N)cn2)n[nH]1 [Prexasertib]
[1]
  area under the viability dose-response curve: 334
[2]
  area under the viability dose-response curve: 324
[3]
  area under the viability dose-response curve: 345
[4]
  area under the viability dose-response curve: 313
[5]
  area under the viability dose-response curve: 264
[6]
  area under the viability dose-response curve: 345
[7]
  area under the viability dose-response curve: 293
[8]
  area under the viability dose-response curve: 172
[9]
  area under the viability dose-response curve: 371
[10]
  area under the viability dose-response curve: 274
[11]
  area under the viability dose-response curve: 320

## N#CCNC(=O)c1ccc(-c2ccnc(Nc3ccc(N4CCOCC4)cc3)n2)cc1 [Momelotinib]
[1]
  area under the viability dose-response curve: 479
[2]
  area under the viability dose-response curve: 462
[3]
  area under the viability dose-response curve: 443
[4]
  area under the viability dose-response curve: 471
[5]
  area under the viability dose-response curve: 496
[6]
  area under the viability dose-response curve: 489
[7]
  area under the viability dose-response curve: 442
[8]
  area under the viability dose-response curve: 462
[9]
  area under the viability dose-response curve: 489
[10]
  area under the viability dose-response curve: 444
[11]
  area under the viability dose-response curve: 465

## C[C@H](NC(=O)Cc1cc(F)cc(F)c1)C(=O)N[C@@H]1C(=O)N(C)c2ccccc2-c2ccccc21
[1]
  area under the viability dose-response curve: 456
[2]
  area under the viability dose-response curve: 472
[3]
  area under the viability dose-response curve: 388
[4]
  area under the viability dose-response curve: 472
[5]
  area under the viability dose-response curve: 441
[6]
  area under the viability dose-response curve: 493
[7]
  area under the viability dose-response curve: 392
[8]
  area under the viability dose-response curve: 406
[9]
  area under the viability dose-response curve: 478
[10]
  area under the viability dose-response curve: 430
[11]
  area under the viability dose-response curve: 497

## Nc1cc(C(F)(F)F)c(-c2cc(N3CCOCC3)nc(N3CCOCC3)n2)cn1 [Buparlisib]
[1]
  area under the viability dose-response curve: 447
[2]
  area under the viability dose-response curve: 440
[3]
  area under the viability dose-response curve: 413
[4]
  area under the viability dose-response curve: 413
[5]
  area under the viability dose-response curve: 436
[6]
  area under the viability dose-response curve: 425
[7]
  area under the viability dose-response curve: 385
[8]
  area under the viability dose-response curve: 383
[9]
  area under the viability dose-response curve: 454
[10]
  area under the viability dose-response curve: 416
[11]
  area under the viability dose-response curve: 449
